Data on two molecules can be found in publication PMC9030254, “Target Hopping from Protein Kinases to PXR: Identification of Small-Molecule Protein Kinase Inhibitors as Selective Modulators of Pregnane X Receptor from TüKIC Library” (Cells, 2022).

Common to all, as to assay: Kinase profiling
Common to all, as to assay type: biochemical

In one assay the target is T1, SRPK2 (Homo sapiens, UniProt P78362).
T1 construct: purchased ProQinase (Freiburg, Germany)
As to the method: (§1) The analysis was performed by ProQinase (Freiburg, Germany).

In the next assay the target is T2, MKK4 (Homo sapiens, UniProt P45985).
T2 construct: purchased ProQinase (Freiburg, Germany)
T2 sequence (P45985 1-399): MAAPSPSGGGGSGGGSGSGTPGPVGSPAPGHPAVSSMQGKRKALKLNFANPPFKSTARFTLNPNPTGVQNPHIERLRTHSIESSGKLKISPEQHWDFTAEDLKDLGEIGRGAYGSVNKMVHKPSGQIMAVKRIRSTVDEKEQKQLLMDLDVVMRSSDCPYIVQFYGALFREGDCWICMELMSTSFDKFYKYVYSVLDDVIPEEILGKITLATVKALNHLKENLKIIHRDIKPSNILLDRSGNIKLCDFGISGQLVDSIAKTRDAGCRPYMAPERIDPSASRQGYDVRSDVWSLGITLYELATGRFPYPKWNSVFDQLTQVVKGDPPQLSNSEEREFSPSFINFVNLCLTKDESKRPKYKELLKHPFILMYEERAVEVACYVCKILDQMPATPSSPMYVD
On the procedure: as §1

The target of the next assay is T3, IGF1R (Homo sapiens, UniProt P08069).
T3 construct: purchased ProQinase (Freiburg, Germany)
T3 sequence (P08069 31-1367): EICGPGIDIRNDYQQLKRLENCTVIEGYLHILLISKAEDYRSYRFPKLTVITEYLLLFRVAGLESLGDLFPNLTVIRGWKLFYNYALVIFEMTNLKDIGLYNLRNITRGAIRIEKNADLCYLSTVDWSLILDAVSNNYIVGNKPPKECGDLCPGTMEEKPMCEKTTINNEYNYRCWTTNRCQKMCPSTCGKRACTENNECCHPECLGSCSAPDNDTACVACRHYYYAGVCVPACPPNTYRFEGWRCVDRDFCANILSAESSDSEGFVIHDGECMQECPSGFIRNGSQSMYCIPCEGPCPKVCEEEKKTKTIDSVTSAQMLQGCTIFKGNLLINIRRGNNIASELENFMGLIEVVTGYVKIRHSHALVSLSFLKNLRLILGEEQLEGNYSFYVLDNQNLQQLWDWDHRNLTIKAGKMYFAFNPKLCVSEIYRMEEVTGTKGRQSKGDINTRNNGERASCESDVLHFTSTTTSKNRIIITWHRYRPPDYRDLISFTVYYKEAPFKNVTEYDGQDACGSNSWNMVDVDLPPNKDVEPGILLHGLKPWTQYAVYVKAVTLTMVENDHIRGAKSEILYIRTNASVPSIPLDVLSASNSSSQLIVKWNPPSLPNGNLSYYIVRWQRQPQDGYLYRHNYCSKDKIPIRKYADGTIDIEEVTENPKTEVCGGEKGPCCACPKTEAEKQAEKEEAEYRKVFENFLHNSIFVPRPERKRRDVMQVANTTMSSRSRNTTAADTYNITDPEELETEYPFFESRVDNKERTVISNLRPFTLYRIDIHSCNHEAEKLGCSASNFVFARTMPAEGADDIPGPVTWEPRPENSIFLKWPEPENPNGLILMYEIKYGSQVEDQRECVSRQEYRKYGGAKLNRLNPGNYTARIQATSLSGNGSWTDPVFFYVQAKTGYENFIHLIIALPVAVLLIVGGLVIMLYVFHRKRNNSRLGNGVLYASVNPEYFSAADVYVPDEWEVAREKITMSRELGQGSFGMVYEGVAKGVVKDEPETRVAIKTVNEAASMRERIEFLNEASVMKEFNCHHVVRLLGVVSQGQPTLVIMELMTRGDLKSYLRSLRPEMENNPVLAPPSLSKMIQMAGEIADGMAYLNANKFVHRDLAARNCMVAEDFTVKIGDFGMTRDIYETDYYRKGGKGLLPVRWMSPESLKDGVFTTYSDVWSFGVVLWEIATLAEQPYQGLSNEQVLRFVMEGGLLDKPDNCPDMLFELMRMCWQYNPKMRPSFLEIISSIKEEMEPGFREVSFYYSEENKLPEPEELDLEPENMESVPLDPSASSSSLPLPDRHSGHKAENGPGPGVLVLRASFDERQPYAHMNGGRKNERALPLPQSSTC
As to the method:
as §1

For the next assay, the target named is T4, CAMK2G (Homo sapiens, UniProt Q13555).
T4 construct: purchased ProQinase (Freiburg, Germany)
T4 sequence (Q13555 whole entry): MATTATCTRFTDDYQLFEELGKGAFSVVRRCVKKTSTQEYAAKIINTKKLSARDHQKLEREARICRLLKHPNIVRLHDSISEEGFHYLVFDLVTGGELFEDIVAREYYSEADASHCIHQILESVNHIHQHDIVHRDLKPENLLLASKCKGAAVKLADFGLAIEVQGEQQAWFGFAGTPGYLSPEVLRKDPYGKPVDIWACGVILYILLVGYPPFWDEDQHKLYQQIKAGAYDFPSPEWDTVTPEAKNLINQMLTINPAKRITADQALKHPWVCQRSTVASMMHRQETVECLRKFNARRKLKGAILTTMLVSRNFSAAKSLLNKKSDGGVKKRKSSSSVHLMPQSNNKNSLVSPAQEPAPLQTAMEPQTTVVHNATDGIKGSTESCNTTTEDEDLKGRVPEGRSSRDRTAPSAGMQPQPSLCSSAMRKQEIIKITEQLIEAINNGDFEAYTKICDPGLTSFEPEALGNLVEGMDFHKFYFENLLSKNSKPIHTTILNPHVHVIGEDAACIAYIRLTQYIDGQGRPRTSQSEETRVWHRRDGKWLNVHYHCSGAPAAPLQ
On the procedure: as §1

For another assay, the target named is T5, AXL (Homo sapiens, UniProt P30530).
T5 construct: purchased ProQinase (Freiburg, Germany)
T5 sequence (P30530 26-894): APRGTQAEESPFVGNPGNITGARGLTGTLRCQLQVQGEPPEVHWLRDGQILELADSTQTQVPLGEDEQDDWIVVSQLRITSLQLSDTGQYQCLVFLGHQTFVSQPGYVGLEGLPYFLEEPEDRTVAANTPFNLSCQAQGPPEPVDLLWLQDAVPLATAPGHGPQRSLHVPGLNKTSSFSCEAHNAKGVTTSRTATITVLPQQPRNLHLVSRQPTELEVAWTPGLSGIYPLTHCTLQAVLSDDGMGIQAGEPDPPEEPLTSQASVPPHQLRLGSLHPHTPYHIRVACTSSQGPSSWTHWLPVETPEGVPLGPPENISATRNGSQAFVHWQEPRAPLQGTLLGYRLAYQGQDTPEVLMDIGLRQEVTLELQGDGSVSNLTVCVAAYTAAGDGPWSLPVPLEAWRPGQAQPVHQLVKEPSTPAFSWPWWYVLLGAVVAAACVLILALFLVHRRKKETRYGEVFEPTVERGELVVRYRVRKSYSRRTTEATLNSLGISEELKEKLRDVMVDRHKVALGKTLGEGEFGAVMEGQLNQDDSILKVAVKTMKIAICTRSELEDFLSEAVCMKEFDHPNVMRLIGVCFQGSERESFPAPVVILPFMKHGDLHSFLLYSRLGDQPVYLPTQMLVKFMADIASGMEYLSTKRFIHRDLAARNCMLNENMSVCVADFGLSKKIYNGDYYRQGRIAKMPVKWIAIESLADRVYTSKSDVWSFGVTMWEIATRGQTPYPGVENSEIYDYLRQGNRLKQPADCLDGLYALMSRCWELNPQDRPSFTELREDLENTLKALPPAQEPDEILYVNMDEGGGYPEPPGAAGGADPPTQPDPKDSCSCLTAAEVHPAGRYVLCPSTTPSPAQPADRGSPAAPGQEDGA
As to the method: as §1

For a further assay, the target named is T6, MTOR (Homo sapiens, UniProt P42345).
T6 construct: purchased ProQinase (Freiburg, Germany)
As to the method: as §1

In another assay the target is T7, IKKalpha (Homo sapiens, UniProt O15111).
T7 construct: purchased ProQinase (Freiburg, Germany)
T7 sequence (O15111 1-745): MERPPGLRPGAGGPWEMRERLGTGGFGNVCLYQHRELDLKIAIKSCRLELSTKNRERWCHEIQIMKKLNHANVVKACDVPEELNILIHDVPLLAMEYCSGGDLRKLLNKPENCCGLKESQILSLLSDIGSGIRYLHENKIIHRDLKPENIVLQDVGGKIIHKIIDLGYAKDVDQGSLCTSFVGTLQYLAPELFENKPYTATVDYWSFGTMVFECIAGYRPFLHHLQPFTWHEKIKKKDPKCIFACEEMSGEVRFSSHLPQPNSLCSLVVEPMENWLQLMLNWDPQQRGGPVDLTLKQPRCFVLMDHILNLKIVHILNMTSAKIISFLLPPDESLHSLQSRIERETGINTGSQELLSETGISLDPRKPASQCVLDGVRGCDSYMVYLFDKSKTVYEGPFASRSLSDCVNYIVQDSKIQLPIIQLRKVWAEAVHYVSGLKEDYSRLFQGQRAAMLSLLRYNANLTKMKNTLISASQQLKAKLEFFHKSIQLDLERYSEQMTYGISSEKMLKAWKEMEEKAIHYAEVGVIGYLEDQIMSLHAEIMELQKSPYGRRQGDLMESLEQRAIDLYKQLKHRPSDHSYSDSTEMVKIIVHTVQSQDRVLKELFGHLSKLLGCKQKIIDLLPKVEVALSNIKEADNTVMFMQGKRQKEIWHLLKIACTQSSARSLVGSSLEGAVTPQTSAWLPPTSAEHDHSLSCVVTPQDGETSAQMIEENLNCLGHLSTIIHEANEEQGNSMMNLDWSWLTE
As to the method: as §1

A further assay addresses T8, PRK1 (Homo sapiens, UniProt Q16512).
T8 construct: purchased ProQinase (Freiburg, Germany)
As to the method:
as §1

For the next assay, the target named is T9, NEK2 (Homo sapiens, UniProt P51955).
T9 construct: purchased ProQinase (Freiburg, Germany)
T9 sequence (P51955 1-445): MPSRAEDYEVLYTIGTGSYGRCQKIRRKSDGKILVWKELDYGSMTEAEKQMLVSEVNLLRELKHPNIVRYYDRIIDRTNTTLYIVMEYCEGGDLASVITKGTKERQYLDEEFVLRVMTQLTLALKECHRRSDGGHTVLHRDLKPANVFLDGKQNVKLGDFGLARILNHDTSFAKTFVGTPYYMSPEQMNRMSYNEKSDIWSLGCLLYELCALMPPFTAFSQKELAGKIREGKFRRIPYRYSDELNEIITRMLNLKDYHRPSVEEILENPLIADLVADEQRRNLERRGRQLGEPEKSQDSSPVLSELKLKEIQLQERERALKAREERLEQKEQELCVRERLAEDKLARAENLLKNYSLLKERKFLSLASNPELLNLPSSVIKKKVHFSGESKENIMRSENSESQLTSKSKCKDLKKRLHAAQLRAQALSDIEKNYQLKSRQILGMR
On the procedure:
as §1

T8 sequence (Q16512 whole entry): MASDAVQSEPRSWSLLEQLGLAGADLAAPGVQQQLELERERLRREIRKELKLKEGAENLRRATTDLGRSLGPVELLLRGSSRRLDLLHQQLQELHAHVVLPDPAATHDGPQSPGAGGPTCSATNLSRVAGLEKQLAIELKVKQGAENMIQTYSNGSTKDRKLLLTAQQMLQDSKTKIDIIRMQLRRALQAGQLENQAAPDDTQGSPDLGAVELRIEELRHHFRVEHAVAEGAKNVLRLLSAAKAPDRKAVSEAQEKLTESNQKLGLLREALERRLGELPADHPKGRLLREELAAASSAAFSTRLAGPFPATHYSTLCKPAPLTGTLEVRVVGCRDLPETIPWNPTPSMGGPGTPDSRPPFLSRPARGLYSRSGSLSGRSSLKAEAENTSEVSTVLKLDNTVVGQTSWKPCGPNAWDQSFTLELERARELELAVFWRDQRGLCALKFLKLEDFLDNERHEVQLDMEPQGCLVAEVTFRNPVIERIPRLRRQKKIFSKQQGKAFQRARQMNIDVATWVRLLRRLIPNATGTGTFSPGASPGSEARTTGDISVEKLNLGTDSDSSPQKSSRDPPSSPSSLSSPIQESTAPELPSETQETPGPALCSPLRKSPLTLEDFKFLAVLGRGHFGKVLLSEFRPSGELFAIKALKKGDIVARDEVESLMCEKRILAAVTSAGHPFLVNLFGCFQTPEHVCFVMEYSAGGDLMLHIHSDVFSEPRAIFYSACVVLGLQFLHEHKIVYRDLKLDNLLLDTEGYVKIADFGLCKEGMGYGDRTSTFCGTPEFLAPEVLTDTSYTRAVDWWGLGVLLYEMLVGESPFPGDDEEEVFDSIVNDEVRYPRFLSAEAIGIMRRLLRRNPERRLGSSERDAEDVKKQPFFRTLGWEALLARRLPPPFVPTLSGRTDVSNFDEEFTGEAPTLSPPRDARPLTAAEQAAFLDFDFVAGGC
T1 sequence (P78362 whole entry): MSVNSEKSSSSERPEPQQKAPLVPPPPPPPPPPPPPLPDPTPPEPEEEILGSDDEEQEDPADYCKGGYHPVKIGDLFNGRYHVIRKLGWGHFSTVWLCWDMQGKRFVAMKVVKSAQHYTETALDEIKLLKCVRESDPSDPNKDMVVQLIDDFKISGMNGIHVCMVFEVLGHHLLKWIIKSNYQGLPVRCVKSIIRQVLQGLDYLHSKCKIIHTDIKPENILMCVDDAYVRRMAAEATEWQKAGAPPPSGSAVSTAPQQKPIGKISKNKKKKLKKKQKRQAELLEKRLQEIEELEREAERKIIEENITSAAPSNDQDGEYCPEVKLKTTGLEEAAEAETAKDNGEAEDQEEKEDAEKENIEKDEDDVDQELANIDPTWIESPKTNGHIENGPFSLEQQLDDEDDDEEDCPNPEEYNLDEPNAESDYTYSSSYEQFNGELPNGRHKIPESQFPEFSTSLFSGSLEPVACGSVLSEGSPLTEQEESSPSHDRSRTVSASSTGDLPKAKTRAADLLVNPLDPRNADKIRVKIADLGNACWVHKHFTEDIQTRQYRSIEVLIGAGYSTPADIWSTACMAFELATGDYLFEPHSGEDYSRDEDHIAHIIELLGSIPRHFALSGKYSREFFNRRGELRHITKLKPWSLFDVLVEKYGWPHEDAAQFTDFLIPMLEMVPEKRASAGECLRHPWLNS

Turning to `O=C(Nc1ccc(F)c(Nc2ccc3c(c2)CCCCC3=O)c1)c1cccc(F)c1` [Compound 109], the Residual activity is 102 % of control on SRPK2 (1.0E-05 M); 111 % of control at SRPK2 (1.0E-06 M); 111 % of control at MKK4 (1.0E-05 M); 96 % of control at MKK4 (1.0E-06 M); 80 % of control on IGF1R (1.0E-05 M); 104 % of control at IGF1R (1.0E-06 M). For the same molecule, the Residual activity on CAMK2G (1.0E-05 M) is 111 % of control; on CAMK2G (1.0E-06 M), 109 % of control; at AXL (1.0E-05 M), 93 % of control; at AXL (1.0E-06 M), 98 % of control; at MTOR (1.0E-05 M), 94 % of control; on MTOR (1.0E-06 M), 94 % of control. Further, the Residual activity at IKKalpha (1.0E-05 M) is given as 93 % of control; on IKKalpha (1.0E-06 M), 104 % of control; at PRK1 (1.0E-05 M), 101 % of control; at PRK1 (1.0E-06 M), 94 % of control; on NEK2 (1.0E-05 M), 101 % of control; on NEK2 (1.0E-06 M) it was 96 % of control.
Take `O=C(Cc1ccccc1)Nc1ccc(F)c(Nc2ccc3c(c2)CCCCC3=O)c1` [Compound 100]: the Residual activity is on record as 94 % of control on SRPK2 (1.0E-05 M); 100 % of control on SRPK2 (1.0E-06 M); 110 % of control on MKK4 (1.0E-05 M); 94 % of control at MKK4 (1.0E-06 M); 101 % of control at IGF1R (1.0E-05 M); 97 % of control at IGF1R (1.0E-06 M). For the same molecule, the Residual activity is given as 107 % of control on CAMK2G (1.0E-05 M); 105 % of control at CAMK2G (1.0E-06 M); 99 % of control at AXL (1.0E-05 M); 103 % of control on AXL (1.0E-06 M); 92 % of control on MTOR (1.0E-05 M); 93 % of control on MTOR (1.0E-06 M). The Residual activity is recorded as 102 % of control on IKKalpha (1.0E-05 M); 102 % of control on IKKalpha (1.0E-06 M); 101 % of control at PRK1 (1.0E-05 M); 112 % of control on PRK1 (1.0E-06 M); 97 % of control on NEK2 (1.0E-05 M); 105 % of control on NEK2 (1.0E-06 M).
